“Also recorded” adds a separate entry of the source. Where two headings read alike, the source gives them in different places.
Assays:
C2BBe1 cells [1] = assay: TEER in A/R-injured C2BBe1 cells with MLCK and ROCK inhibitors with or without LA; type: cell-based, human; conditions: 10 mM LA, 1 μM Y-27632 dihydrochloride, 400 μM Peptide 18; A/R injury; FIG. 7
Experimental: To evaluate barrier function, the TEER was measured in A/R-injured C2BBe1 cells treated with or without LA.

C2BBe1 cells [2] = conditions: 10 mM LA; regular media; 48 hours
Experimental: This experiment evaluated the role of LA in proliferation and migration. Specifically, proliferation of non-treated or LA-treated (10 mM) C2BBe1 cells was evaluated by the CCK-8 assay kit (Dojindo Molecular Technologies, Rockville, MD) according to the manufacturer's instructions. 10 mM LA was treated every other day to cells seeded in 96-well culture plates. Viable cells were evaluated with the CCK-8 Assay Kit for five consecutive days. Migration was assessed by seeding C2BBe1 cells in 3 well culture-inserts (ibidi GmbH, Gräfelfing, Germany) and removing the inserts after reaching confluence to create a “wound” in the cell monolayer. 10 mM LA was added to serum-free and regular media to assess migration and proliferation, respectively. Images were captured at 0, 4, 8, 24, and 48 hours with Axio Vert A1 microscope (Carl Zeiss AG, Oberkochen, Germany) and closing of the wound was analyzed by measuring migration distance with ImageJ software.

C2BBe1 intestinal cells = conditions: 10 mM LA; A/R injury; compared to non-treated A/R injured cells
Experimental: Specifically, to evaluate barrier function, transepithelial electrical resistance (TEER) was measured in anoxia/reoxygenation (A/R)-injured C2BBe1 (Caco-2 brush border-expressing Caco-2) cells treated with or without larazotide acetate (LA). Monolayers of C2BBe1 were treated with LA (0.001, 0.1, 1, and 10 mM) and were subjected to anoxia for 2 hours followed by reoxygenation with 21% O2. To generate A/R injury, C2BBe1 cells were placed in a modular incubator chamber (Billups-Rothenberg, San Diego, CA) and flushed with 95% N2/5% CO2 for 5 minutes. The modular chamber was then sealed airtight and placed in an incubator for 2 hours. After 2 hours, the cells were removed from the modular incubator chamber and placed in a 21% O2 normal environment. TEER was measured to assess barrier function during A/R injury and recovery. The TEER was measured using a Chopstick Electrode Set (WPI, LLC, Sarasota, FL) on the basal and apical sides of a monolayer and attached to an Epithelial Volt Ohm Meter2 (WPI, LLC, Sarasota, FL).

C2BBe1 = system: C2BBe1
Experimental: Specifically, monolayers of C2BBe1 were treated with 10 mM LA and were subjected to anoxia for 2 hours followed by reoxygenation with 21% O2 for 1 hour. Next-generation RNA sequencing and biostatistical analyses were employed to assess cellular regulatory pathways.

C2BBe1 cells [3] = conditions: 10 mM LA
Experimental: For barrier function analysis, TEER was measured in monolayers of C2BBe1 cells treated with or without 10 mM LA. TEER was measured using a Chopstick Electrode Set (WPI, LLC, Sarasota, FL) on the basal and apical sides of a monolayer and attached to an Epithelial Volt Ohm Meter2 (WPI, LLC, Sarasota, FL).

tight junction proteins = conditions: 10 mM LA
Experimental: (§1) Specifically, the distribution of tight junction proteins and actin structure was evaluated using western blots on membrane and cytosol fractions and immunofluorescence microscope analysis. Mem-PER Eukaryotic Membrane Protein Extraction Reagent Kit (Thermo Scientific) was used to fractionate membrane and cytosolic compartment. The extracted proteins were blotted with primary antibodies anti-ZO-1 and anti-occludin (Invitrogen). The cold methanol fixed monolayers were stained with primary antibodies (ZO-1 and occludin) and phalloidin (F-actin) for immunofluorescence microscope analysis. The stained monolayers were examined with an Olympus IX83 Inverted Motorized Microscope with cellSens software (Olympus, Tokyo, Japan). pMLC-2/MLC-2 expression was evaluated using western blot analysis with primary antibodies for pMLC-2 and MLC-2 (CST, Danvers, MA).

ZO-1, occludin, F-actin = system: ZO-1, occludin, F-actin
Experimental: as §1

[4] = anoxic cells vs. exposed to LA for 3 h
[5] = control vs. exposed to LA for 3 h

Compound: O=S(=O)(c1cccc2cnccc12)N1CCCNCC1 [Fasudil]
- TEER compared to non-treated A/R injured cells (C2BBe1 cells [1]): increased TEER

Compound: larazotide acetate
- wound healing (C2BBe1 cells [2]): significantly increased wound healing
- TEER (C2BBe1 intestinal cells): significantly (p<0.001) increases the TEER; also recorded: significantly increased (p<0.001)
- translational processes (GO analysis) (C2BBe1; LA-treated cells compared to non-treated cells): significantly increased
- Expression compared to control: AMOTL2 (C2BBe1; [4]): Down
- Expression compared to control: EGR1 (C2BBe1; [4]): Down
- Expression compared to control: HES1 (C2BBe1; [4]): Down
- Expression compared to control: HSPH1 (C2BBe1; [4]): Down
- Expression compared to control: JPH2 (C2BBe1; [4]): Up
- Expression compared to control: NDRG1 (C2BBe1; [4]): Up
- Expression compared to control: PFKFB4 (C2BBe1; [4]): Up
- Expression compared to control: SAMD5 (C2BBe1; [4]): Down
- Expression compared to control: SLC2A3 (C2BBe1; [4]): Up
- Expression compared to control: TNS1 (C2BBe1; [4]): Up
- Ras/Rho GTPase-binding and protein serine/threonine kinase activity (GO analysis) (C2BBe1; cells treated with LA, FIG. 10): differentially expressed
- Expression compared to control: CEBPB (C2BBe1; [5]): Up
- Expression compared to control: DDIT4 (C2BBe1; [5]): Up
- Expression compared to control: EGR1 (C2BBe1; [5]): Up
- Expression compared to control: H1F0 (C2BBe1; [5]): Up
- Expression compared to control: ID2 (C2BBe1; [5]): Up
- Expression compared to control: IGFBP4 (C2BBe1; [5]): Down
- Expression compared to control: ITGA2 (C2BBe1; [5]): Down
- Expression compared to control: MAT2A (C2BBe1; [5]): Down
- Expression compared to control: SAMD5 (C2BBe1; [5]): Down
- Expression compared to control: SYTL2 (C2BBe1; [5]): Down
- TEER (C2BBe1 cells [3]; compared to non-treated A/R injured cells at 1 hour after treatment (FIG. 12 legend)): significantly increased TEER
- TEER (C2BBe1 cells [3]; normal conditions, FIG. 12): increased TEER
- occludin in the membrane fraction (immunoblotting) (tight junction proteins; 1-hour reoxygenation, compared to non-treated anoxic injured cells): significantly (p<0.05) increased in the membrane
- disruption of tight junction proteins during A/R injury (tight junction proteins; FIG. 3): prevented disruption of tight junction proteins
- F-actin structure during A/R injury (ZO-1, occludin, F-actin; 10 mM LA, FIG. 4): protected
- localization of tight junction and cytoskeleton proteins (ZO-1, occludin, F-actin) by immunofluorescence (ZO-1, occludin, F-actin; 1-hour reoxygenation, versus non-treated anoxic injured cells): revealed well-organized tight junction proteins and F-actin

From US20250144166A1, “COMPOSITIONS AND METHODS FOR INHIBITING RHO KINASE” (INTERLUDE BIOPHARMA CO., priority 2022, published 2025)
